Laboratory results: PMC4607639 (Bioorganic & medicinal chemistry letters, 2015)

Assays:
[1] = Aqueous solubility, shake-flask procedure; type: physicochemical; conditions: for fold less soluble than the corresponding triazines: pyrimidines 7d, 8c versus triazines 7g, 8f
MT-2 human T-cells = experiment: Cytotoxicity, inhibition of MT-2 cell growth; type: cell-based; conditions: inhibition of MT-2 cell growth by 50%

| Structure (SMILES) | fold less soluble than the corresponding triazines [1] | other results |
| --- | --- | --- |
| Cc1cn2cc(C#N)cc2c(C)c1Nc1ccnc(Nc2ccc(C#N)cc2)n1 [Compound 7d] | 2-4 fold | – |
| Cc1cc2cc(C#N)ccc2c(C)c1Nc1ccnc(Nc2ccc(C#N)cc2)n1 [Compound 8c] | 2-4 fold | – |
| Cc1cc2cc(C#N)ccc2c(C)c1Nc1ncnc(Nc2ccc(C#N)cc2)n1 [Compound 8f] | – | solubility fold greater than for rilpivirine ([1]; versus rilpivirine): ca. 1000 fold |
| N#Cc1ccc(Nc2ncnc(Nc3c(F)cc4cc(C#N)ccc4c3F)n2)cc1 [Compound 8h] | – | CC50 (MT-2 human T-cells): no cytotoxicity |
